# How the values were obtained:
# FGFR3 enzyme = test: FGFR Enzymatic Assay (FRET peptide phosphorylation), FGFR3; format: biochemical; settings: IC50 ratio showing FGFR3 selectivity; Table 2A, pre-incubated for 4 hours
# Method: (§1) The inhibitor potency of the exemplified compounds was measured in an enzyme assay that measures peptide phosphorylation using FRET measurements to detect product formation. Inhibitors were serially diluted in DMSO and a volume of 0.5 μL was transferred to the wells of a 384-well plate.
# (§2) GraphPad prism3 was used to analyze the data.
# FGFR4 = FGFR4 (Homo sapiens (Human), UniProt P22455); test: FGFR Enzymatic Assay (FRET peptide phosphorylation), FGFR4; format: biochemical
# Sequence of FGFR4 (P22455 22-802): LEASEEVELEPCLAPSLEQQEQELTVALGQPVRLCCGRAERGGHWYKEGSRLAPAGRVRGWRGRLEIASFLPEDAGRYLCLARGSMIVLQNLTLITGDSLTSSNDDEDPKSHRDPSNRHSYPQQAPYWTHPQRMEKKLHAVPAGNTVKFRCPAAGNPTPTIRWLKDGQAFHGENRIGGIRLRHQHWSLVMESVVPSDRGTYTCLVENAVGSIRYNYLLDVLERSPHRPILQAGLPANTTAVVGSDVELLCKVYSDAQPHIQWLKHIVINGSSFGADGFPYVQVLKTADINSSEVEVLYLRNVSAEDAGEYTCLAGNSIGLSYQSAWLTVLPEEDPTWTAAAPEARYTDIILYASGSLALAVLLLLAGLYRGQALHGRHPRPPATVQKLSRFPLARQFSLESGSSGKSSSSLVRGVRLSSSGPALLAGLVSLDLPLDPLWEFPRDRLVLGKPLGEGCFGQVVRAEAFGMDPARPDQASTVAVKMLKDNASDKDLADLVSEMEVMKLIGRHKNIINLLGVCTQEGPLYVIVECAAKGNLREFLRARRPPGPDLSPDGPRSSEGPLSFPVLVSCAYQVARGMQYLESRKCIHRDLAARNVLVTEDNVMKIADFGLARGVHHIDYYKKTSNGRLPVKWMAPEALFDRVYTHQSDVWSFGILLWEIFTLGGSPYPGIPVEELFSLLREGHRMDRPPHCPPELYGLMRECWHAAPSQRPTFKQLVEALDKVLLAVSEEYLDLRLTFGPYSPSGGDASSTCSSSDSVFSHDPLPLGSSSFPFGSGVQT
# Method: as §1
# The enzymes were purchased from Millipore or Invitrogen.
# as §2
# [1] = IC50 ratio showing FGFR4 selectivity, Table 2, pre-incubated for 4 hours
# [2] = ratio of IC50 data showing FGFR4 selectivity, Table 4, pre-incubated for 5 to 10 minutes
SMILES,FGFR1/FGFR3 (FGFR3 enzyme),FGFR1/FGFR4 (FGFR4; [1]),FGFR2/FGFR4 (FGFR4; [1]),FGFR3/FGFR4 (FGFR4; [1]),FGFR1/FGFR4 (FGFR4; [2]),FGFR2/FGFR4 (FGFR4; [2]),FGFR3/FGFR4 (FGFR4; [2])
"COc1cc(OC)c(F)c(N2Cc3cnc(-c4cncc(N5CCOCC5)c4)cc3C3(CC3)C2=O)c1F [Example 6, 2′-(2,6-difluoro-3,5-dimethoxyphenyl)-6′-(5-morpholinopyridin-3-yl)-1′H-spiro[cyclopropane-1,4′-[2,7]naphthyridin]-3′(2′H)-one]",>3,>100,>100,>25,>100,>100,>50
"COc1cc(OC)c(F)c(N2Cc3cnc(-c4cncc(C#N)c4)cc3C3(CC3)C2=O)c1F [Example 8, 5-(2′-(2,6-difluoro-3,5-dimethoxyphenyl)-3′-oxo-2′,3′-dihydro-1′H-spiro[cyclopropane-1,4′-[2,7]naphthyridine]-6′-yl)nicotinonitrile]",>5,>50,>10,>10,>50,>10,>10
"COc1cc(OC)c(F)c(N2Cc3cnc(-c4cncc(C(=O)N5CCOCC5)c4)cc3C3(CC3)C2=O)c1F [Example 13, 2′-(2,6-difluoro-3,5-dimethoxyphenyl)-6′-(5-(morpholine-4-carbonyl)pyridin-3-yl)-1′H-spiro[cyclopropane-1,4′-[2,7]naphthyridin]-3′(2′H)-one]",>3,>50,>25,>10,>50,>20,>10
"COc1cc(OC)c(F)c(N2Cc3cnc(-c4cncc(N)c4)cc3C3(CC3)C2=O)c1F [Example 4, 6′-(5-aminopyridin-3-yl)-2′-(2,6-difluoro-3,5-dimethoxyphenyl)-1′H-spiro[cyclopropane-1,4′-[2,7]naphthyridin]-3′(2′H)-one]",>1,>25,>10,>10,>10,>10,>5
"COc1cc(OC)c(F)c(N2Cc3cnc(-c4cc(N)cnc4C)cc3C3(CC3)C2=O)c1F [Example 7, 6′-(5-amino-2-methylpyridin-3-yl)-2′-(2,6-difluoro-3,5-dimethoxyphenyl)-1′H-spiro[cyclopropane-1,4′-[2,7]naphthyridin]-3′(2′H)-one]",>1,>50,>25,>25,>25,>10,>10
"COc1cc(OC)c(F)c(N2Cc3cnc(-c4cncc(NS(C)(=O)=O)c4)cc3C3(CC3)C2=O)c1F [Example 15, N-(5-(2′-(2,6-difluoro-3,5-dimethoxyphenyl)-3′-oxo-2′,3′-dihydro-1′H-spiro[cyclopropane-1,4′-[2,7]naphthyridine]-6′-yl)pyridin-3-yl)methanesulfonamide]",>3,>50,>25,>10,>50,>25,>10
"COc1cc(OC)c(F)c(N2Cc3cnc(-c4cncc(S(=O)(=O)N5CCOCC5)c4)cc3C3(CC3)C2=O)c1F [Example 14, 2′-(2,6-difluoro-3,5-dimethoxyphenyl)-6′-(5-(morpholinosulfonyl)pyridin-3-yl)-1′H-spiro[cyclopropane-1,4′-[2,7]naphthyridin]-3′(2′H)-one]",>5,>50,>10,>1,>25,>5,>5
"COc1cncc(-c2cc3c(cn2)CN(c2c(F)c(OC)cc(OC)c2F)C(=O)C32CC2)c1 [Example 10, 2′-(2,6-difluoro-3,5-dimethoxyphenyl)-6′-(5-methoxypyridin-3-yl)-1′H-spiro[cyclopropane-1,4′-[2,7]naphthyridin]-3′(2′H)-one]",>1,>25,>25,>10,>25,>10,>10
"COc1cc(OC)c(F)c(N2Cc3cnc(-c4cccnc4)cc3C3(CC3)C2=O)c1F [Example 9, 2′-(2,6-difluoro-3,5-dimethoxyphenyl)-6′-(pyridin-3-yl)-1′H-spiro[cyclopropane-1,4′-[2,7]naphthyridin]-3′(2′H)-one]",>3,>10,>1,>1,>5,>1,>1
"COc1cc(OC)c(F)c(N2Cc3cnc(-c4cncc(CN5CCOCC5)c4)cc3C3(CC3)C2=O)c1F [Example 16, 2′-(2,6-difluoro-3,5-dimethoxyphenyl)-6′-(5-(morpholinomethyl)pyridin-3-yl)-1′H-spiro[cyclopropane-1,4′-[2,7]naphthyridin]-3′(2′H)-one]",>1,>50,>25,>10,>25,>10,>10
